# Experimental data taken from article PMC2219267 (The Journal of General Physiology, 1996).
# Read-outs that look alike come from different tables or passages of the source.
# Target: T1, band 3 (Homo sapiens, UniProt P02730)
# T1 sequence (P02730 1-911): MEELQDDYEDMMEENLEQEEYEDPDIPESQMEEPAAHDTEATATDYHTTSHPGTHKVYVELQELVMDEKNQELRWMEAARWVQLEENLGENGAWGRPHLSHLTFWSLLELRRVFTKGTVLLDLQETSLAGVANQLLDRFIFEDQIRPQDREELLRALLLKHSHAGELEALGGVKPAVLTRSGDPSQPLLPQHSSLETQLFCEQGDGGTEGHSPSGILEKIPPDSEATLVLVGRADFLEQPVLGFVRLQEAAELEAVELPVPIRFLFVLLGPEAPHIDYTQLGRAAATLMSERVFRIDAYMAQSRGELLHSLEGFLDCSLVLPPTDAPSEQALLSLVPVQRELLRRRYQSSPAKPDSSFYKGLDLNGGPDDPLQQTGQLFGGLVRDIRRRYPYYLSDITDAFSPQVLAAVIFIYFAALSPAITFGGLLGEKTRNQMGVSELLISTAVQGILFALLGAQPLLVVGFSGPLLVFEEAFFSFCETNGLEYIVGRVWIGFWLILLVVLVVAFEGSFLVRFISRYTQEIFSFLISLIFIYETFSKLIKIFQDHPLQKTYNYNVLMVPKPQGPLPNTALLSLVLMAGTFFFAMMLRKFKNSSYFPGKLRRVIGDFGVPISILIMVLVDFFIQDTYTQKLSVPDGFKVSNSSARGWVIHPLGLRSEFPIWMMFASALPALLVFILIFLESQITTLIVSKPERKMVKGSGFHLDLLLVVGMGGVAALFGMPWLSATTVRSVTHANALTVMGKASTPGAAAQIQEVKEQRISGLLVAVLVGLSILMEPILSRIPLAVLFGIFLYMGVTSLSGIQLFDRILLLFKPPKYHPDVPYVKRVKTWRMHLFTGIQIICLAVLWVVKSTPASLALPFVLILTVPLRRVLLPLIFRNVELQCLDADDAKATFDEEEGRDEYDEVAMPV
# Test: 36Cl exchange flux inhibition in red blood cells, Dixon plots
# Assay type: cell-based
# Conditions: for Kd: read-out: Average KoI (SE)
# [1] = exp 86, pHo 11.6, sucrose, Clo 30 mM
# [2] = exp 86, pHo 11.6, sucrose, Clo 200 mM
# [3] = exp N223, pHo 7.2, citrate, Clo 1.05 mM
# [4] = exp N223, pHo 7.2, citrate, Clo 2.07 mM
# [5] = exp N223, pHo 7.2, citrate, Clo 145 mM
# [6] = exp N225, pHo 7.2, citrate, Clo 2.07 mM
# [7] = exp N225, pHo 7.2, citrate, Clo 4.14 mM
# [8] = exp N225, pHo 7.2, citrate, Clo 130 mM
smiles,measurement,setting,value
"[I-].[K+] [iodide, potassium iodide]",ID50 for iodide in the medium with low Cl- concentration,"exp 84, pHo 8.0, 0°C, Hepes, Cli 130 mM, low Clo 0.9 mM",2.05 mM
same,ID50 for iodide in the medium with low Cl- concentration,"exp 85, pHo 7.2, 0°C, Hepes, Cli 133 mM, low Clo 0.3 mM",1.80 mM
same,ID50 for iodide in the medium with low Cl- concentration,"exp 86, pHo 11.6, 0°C, CAPS, Cli 295 mM, low Clo 30 mM",63.3 mM
same,DS·Clo (Dixon slope times [Clo]),[1],0.2098
same,Dixon slope (DS) for Io inhibition of Cl- exchange,[1],0.00699
same,High/low: DS·Clo at the highest [Clo] divided by that at the given [Clo],[1],1.12
same,DS·Clo (Dixon slope times [Clo]),[2],0.2354
same,Dixon slope (DS) for Io inhibition of Cl- exchange,[2],0.00118
same,ID50 for iodide in the medium with low Cl- concentration,"exp 86, pHo 12.4, 0°C, CAPS, Cli 295 mM, low Clo 30 mM",88.5 mM
same,DS·Clo (Dixon slope times [Clo]),"exp 86, pHo 12.4, Clo 30 mM",0.3617
same,Dixon slope (DS) for Io inhibition of Cl- exchange,"exp 86, pHo 12.4, Clo 30 mM",0.01206
same,High/low: DS·Clo at the highest [Clo] divided by that at the given [Clo],"exp 86, pHo 12.4, Clo 30 mM",1.08
same,DS·Clo (Dixon slope times [Clo]),"exp 86, pHo 12.4, Clo 200 mM",0.3918
same,Dixon slope (DS) for Io inhibition of Cl- exchange,"exp 86, pHo 12.4, Clo 200 mM",0.001959
same,ID50 for iodide in the medium with low Cl- concentration,"exp 87, pHo 11.9, 0°C, CAPS, Cli 294 mM, low Clo 30 mM",83.8 mM
same,ID50 for iodide in the medium with low Cl- concentration,"exp 87, pHo 12.4, 0°C, CAPS, Cli 294 mM, low Clo 30 mM",92.5 mM
same,DS·Clo (Dixon slope times [Clo]),"exp 87, pHo 12.4, Clo 30 mM",0.3492
same,Dixon slope (DS) for Io inhibition of Cl- exchange,"exp 87, pHo 12.4, Clo 30 mM",0.01164
same,High/low: DS·Clo at the highest [Clo] divided by that at the given [Clo],"exp 87, pHo 12.4, Clo 30 mM",0.81
same,DS·Clo (Dixon slope times [Clo]),"exp 87, pHo 12.4, Clo 200 mM",0.2824
same,Dixon slope (DS) for Io inhibition of Cl- exchange,"exp 87, pHo 12.4, Clo 200 mM",0.001412
same,ID50 for iodide in the medium with low Cl- concentration,"exp 89, pHo 11.9, 0°C, CAPS, Cli 304 mM, low Clo 30 mM",91.8 mM
same,ID50 for iodide in the medium with low Cl- concentration,"exp 89, pHo 12, 0°C, No buffer, Cli 304 mM, low Clo 30 mM",128.5 mM
same,DS·Clo (Dixon slope times [Clo]),[3],0.0854
same,Dixon slope (DS) for Io inhibition of Cl- exchange,[3],0.081
same,High/low: DS·Clo at the highest [Clo] divided by that at the given [Clo],[3],3.96
same,DS·Clo (Dixon slope times [Clo]),[4],0.1048
same,Dixon slope (DS) for Io inhibition of Cl- exchange,[4],0.0506
same,High/low: DS·Clo at the highest [Clo] divided by that at the given [Clo],[4],3.22
same,DS·Clo (Dixon slope times [Clo]),[5],0.338
same,Dixon slope (DS) for Io inhibition of Cl- exchange,[5],0.00233
same,DS·Clo (Dixon slope times [Clo]),[6],0.0724
same,Dixon slope (DS) for Io inhibition of Cl- exchange,[6],0.0349
same,High/low: DS·Clo at the highest [Clo] divided by that at the given [Clo],[6],3.66
same,DS·Clo (Dixon slope times [Clo]),[7],0.0907
same,Dixon slope (DS) for Io inhibition of Cl- exchange,[7],0.0219
same,High/low: DS·Clo at the highest [Clo] divided by that at the given [Clo],[7],2.92
same,DS·Clo (Dixon slope times [Clo]),[8],0.2652
same,Dixon slope (DS) for Io inhibition of Cl- exchange,[8],0.00204
same,"1/R, ratio of dissociation constants alkaline/neutral state",our value,69
same,apparent ID50 for I- as an inhibitor of Cl- exchange,"pH 10.6, 1.65 mM [Clo]",23.6 ± 2.1 mM
same,y intercept of ID50 for Io vs [Clo] (should give KoI),"pHi and pHo 7.2, 0°C, Cli ~150 mM, media with 5 mM Hepes, Fig. 5",2.0 ± 0.2 mM
same,y intercept of Dixon slope for Io inhibition vs 1/[Clo],"pHo 7.2, 25 mM K3citrate plus sucrose replacing Cl-, Fig. 4B",0.0017 kg Hb·s·mmol-1·mM-1
same,y intercept of Dixon slope for Io inhibition vs 1/[Clo],"pHo 7.2, sucrose replacing Clo, Fig. 4A",0.006 kg Hb·s·mmol-1·mM-1
same,Kd,"pHo 7.2, 0°C",0.83 mM
same,Kd,"pHo 8.0, 0°C",0.45 mM
same,Kd,"pHo 8.5, 0°C",1.01 mM
same,Kd,"pHo 8.66, 0°C",1.26 mM
same,Kd,"pHo 9.2, 0°C",2.6 mM
same,Kd,"pHo 9.9, 0°C",5.63 mM
same,Kd,"pHo 10, 0°C",6.48 mM
same,Kd,"pHo 10.6, 0°C",18.4 mM
same,Kd,"pHo 10.7, 0°C",16.4 mM
same,Kd,"pHo 11.6, 0°C",35.8 mM
same,Kd,"pHo 11.9, 0°C",75.6 mM
same,Kd,"pHo 12.4, 0°C",73.4 mM
same,"R = K++I/K+I, ratio of I- dissociation constants for neutral and alkaline forms",two-titratable-site fit to KoI data,0.0145
